Test results taken from patent US20080161340A1, “Tetrahydroquinilinones, tetrahydronaphthyridones and derivatives thereof” (priority 2006, published 2008).
pEC50: −log10 of the molar value.

Experiments:
Type in all cases: cell-based
hCB1 = biological target: T1, hCB1 (Homo sapiens, UniProt P21554); test: cAMP assay (LANCE TR-FRET) in CHO-K1 cells stably expressing hCB1, agonist/inverse agonist; conditions: intracellular cAMP, CHO-K1 hCB1 cells prestimulated with NKH-477, + agonist, − inverse agonist; for pEC50: read-out: hCB1 EC50 class
T1 construct: host or cells: CHO-K1
T1 sequence (P21554 whole entry): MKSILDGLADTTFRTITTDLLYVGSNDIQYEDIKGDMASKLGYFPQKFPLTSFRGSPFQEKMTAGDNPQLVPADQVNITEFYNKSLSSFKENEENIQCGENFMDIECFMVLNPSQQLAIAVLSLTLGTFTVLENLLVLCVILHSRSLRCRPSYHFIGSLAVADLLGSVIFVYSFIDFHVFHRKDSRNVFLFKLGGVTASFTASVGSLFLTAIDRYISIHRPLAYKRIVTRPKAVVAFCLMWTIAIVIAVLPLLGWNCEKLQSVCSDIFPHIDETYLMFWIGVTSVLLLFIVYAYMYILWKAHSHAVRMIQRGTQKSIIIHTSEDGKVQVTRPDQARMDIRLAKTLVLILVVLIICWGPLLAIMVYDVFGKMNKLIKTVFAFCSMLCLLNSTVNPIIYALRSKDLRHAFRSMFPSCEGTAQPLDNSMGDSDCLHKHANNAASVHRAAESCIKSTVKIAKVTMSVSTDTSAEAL
Protocol: (§1) The ability of compounds to act as agonists or inverse agonists at human CB2 and CB1 receptors (hCB2, hCB1, respectively) was determined by measuring changes in intracellular cAMP levels. Chinese Hamster Ovary (CHO-K1) cell lines stably expressing hCB2 (Genebank: X74328) or hCB1 (Genebank: X54937) were purchased from Euroscreen (Gosselies, Belgium).
(§2) Cell lines were grown in suspension in EX-CELL 302 CHO Serum-free medium (Sigma, cat #14324C) supplemented with 1% Fetal Bovine Serum, glutamine and non-essential amino-acids under 0.4 mg/mL G418 selection.
(§3) Receptor mediated responses were determined by measuring changes in intracellular cAMP using LANCE cAMP detection kit (cat #AD0264, PerkinElmer, Wellesley, Mass.) based on time-resolved fluorescence resonance energy transfer (TR-FRET). Changes in cAMP were determined in cells pre-incubated with IBMX (isobutyl methylxanthine) and prestimulated with NKH-477 (a water soluble forskolin derivative, cat #1603, Tocris, Ellisville, Mo.) to increase basal cAMP levels as detailed below.
(§4) On the day of the experiment, cells were spun at low speed for 5 min at room temperature. The supernatant was removed and cells were resuspended in stimulation buffer (Hanks Buffered Salt Solution/5 mM HEPES, containing 0.5 mM IBMX (cat #17018, Sigma) and 0.02% BSA (PerkinElmer, cat #CR84-100)). Cell clumps were removed by filtering through cell strainer 40 μm (BD Falcon, Discovery Labware, Bedford, Mass.) and diluted to 2×10^5 cells/mL. Antibody supplied with the LANCE cAMP immunoassay kit was then added according to the manufacturer's instructions. An aliquot of cells was taken for un-induced controls. To the remaining cells was added NKH-477 (a water soluble forskolin derivative, Tocris cat #1603) to a final concentration of 2-8 μM. Cells were then incubated for 30 min at room temperature prior to adding to Proxiplates containing test compounds (final DMSO concentration was less than 0.5%) with a Multidrop bulk dispenser, followed by a sixty minute incubation at room temperature. The response was stopped by addition of the detection mix supplied with the LANCE kit.
(§5) The reagents were allowed to equilibrate for three hours prior to reading on an Envision multi-mode detector (PerkinElmer). TR-FRET was measured using a 330-380 nm excitation filter, a 665 nm emission filter, dichroic mirror 380 nm and Z=1 mm.
(§6) Cyclic AMP concentrations in each well were back-calculated from a cAMP standard curve run concurrently during each assay. Each plate contained 16 wells of forskolin stimulated cells and 16 wells of forskolin plus CP55,940-treated. CP55,940-treated cells were treated with CP55,940 (Tocris cat. # 0949) at 1 μm and the maximal response was used as the full range (100%) standard. WIN55,212 (Tocris cat. # 1038) was used as an internal standard. Concentrations of cAMP were expressed as a percent of the difference of these two groups of wells. Concentration-response data including ECso (the concentration of compound producing 50% of the maximal response) and intrinsic activity (the percent maximal activation compared to full activation by CP55,940) were determined using a four-parameter non-linear regression algorithm (Xlfit equation 251, IDBS).

hCB2 = biological target: T2, hCB2 (Homo sapiens, UniProt P34972); test: cAMP assay (LANCE TR-FRET) in CHO-K1 cells stably expressing hCB2, agonist/inverse agonist; conditions: intracellular cAMP, CHO-K1 hCB2 cells prestimulated with NKH-477; + agonist, − inverse agonist
T2 construct: host or cells: CHO-K1
T2 sequence (P34972 whole entry): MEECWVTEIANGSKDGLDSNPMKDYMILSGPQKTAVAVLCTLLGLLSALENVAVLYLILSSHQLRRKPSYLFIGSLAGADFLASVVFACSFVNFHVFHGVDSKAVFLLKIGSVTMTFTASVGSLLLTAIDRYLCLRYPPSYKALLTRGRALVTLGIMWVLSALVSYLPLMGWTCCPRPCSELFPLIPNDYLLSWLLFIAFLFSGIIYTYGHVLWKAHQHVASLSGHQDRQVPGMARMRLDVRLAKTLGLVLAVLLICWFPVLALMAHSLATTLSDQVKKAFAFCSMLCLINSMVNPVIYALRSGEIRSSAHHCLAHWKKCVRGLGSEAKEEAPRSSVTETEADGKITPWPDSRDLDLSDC
Protocol: as §1, §2, §3, §4, §5, §6

rCB2 = biological target: T3, rCB2 (Rattus norvegicus, UniProt Q9QZN9); test: cAMP assay, rCB2 in Table 7, agonist/inverse agonist; conditions: intracellular cAMP; + agonist, − inverse agonist
T3 sequence (Q9QZN9 1-360): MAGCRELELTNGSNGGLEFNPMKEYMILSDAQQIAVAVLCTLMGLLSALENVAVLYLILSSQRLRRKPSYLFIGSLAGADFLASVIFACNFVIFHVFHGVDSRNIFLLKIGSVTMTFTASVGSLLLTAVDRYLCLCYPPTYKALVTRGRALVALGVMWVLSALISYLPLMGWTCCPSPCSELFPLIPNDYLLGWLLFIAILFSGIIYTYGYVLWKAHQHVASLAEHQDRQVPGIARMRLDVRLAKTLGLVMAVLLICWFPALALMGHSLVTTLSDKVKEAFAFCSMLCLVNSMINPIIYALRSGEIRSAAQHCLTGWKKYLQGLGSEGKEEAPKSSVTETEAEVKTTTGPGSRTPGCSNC
Protocol: as §3, §4, §5, §6

| SMILES | pEC50 (hCB1) | hCB2 EC50 class (hCB2) | rCB2 EC50 class (rCB2) | hCB1 EC50 class (hCB1) |
| --- | --- | --- | --- | --- |
| COc1ncc(-c2cc3c(n(CC4CCC4)c2=O)CCCC3)c(OC)n1 [Compound 29, 1-(cyclobutylmethyl)-3-(2,4-dimethoxypyrimidin-5-yl)-5,6,7,8-tetrahydroquinolin-2(1H)-one] | < 5.00 | +B | +A | – |
| Cn1cc(-c2cc3c(n(CC4CCC4)c2=O)CCCC3)cn1 [Compound 26, 1-(cyclobutylmethyl)-3-(1-methyl-1H-pyrazol-4-yl)-5,6,7,8-tetrahydroquinolin-2(1H)-one] | < 5.00 | +B | +A | – |
| O=c1c(-c2cccs2)cc2c(n1CC1CCC1)CCCC2 [Compound 9, 1-(cyclobutylmethyl)-3-(thiophen-2-yl)-5,6,7,8-tetrahydroquinolin-2(1H)-one] | < 5.00 | +B | +C | – |
| O=c1c(-c2cccc(Cl)c2)cc2c(n1CC1CCCCC1)CCCC2 [Compound 25, 3-(3-chlorophenyl)-1-(cyclohexylmethyl)-5,6,7,8-tetrahydroquinolm-2(1H)-one] | – | +B | +A | +B |
| O=c1c(-c2cccnc2)cc2c(n1CC1CCC1)CCCC2 [Compound 10, 1-(cyclobutylmethyl)-3-(pyridin-3-yl)-5,6,7,8-tetrahydroquinolin-2(1H)-one] | < 5.00 | +B | +B | – |
| CC(C)CS(=O)(=O)N1CCc2c(cc(-c3cccc(Cl)c3)c(=O)n2CC2CC2)C1 [Compound 50, 3-(3-chlorophenyl)-1-(cyclopropylmethyl)-6-(isobutylsulfonyl)-5,6,7,8-tetrahydro-1,6-naphthyridin-2(1H)-one] | – | +C | −B | −B |
| O=c1c(Cc2ccccc2)cc2c(n1CC1CCC1)CCCC2 [Compound 34, 3-benzyl-1-(cyclobutylmethyl)-5,6,7,8-tetrahydroquinolin-2(1H)-one] | < 5.00 | +B | +B | – |
| O=c1c(-c2ccccc2F)cc2c(n1CC1CCC1)CCCC2 [Compound 15, 1-(cyclobutylmethyl)-3-(2-fluorophenyl)-5,6,7,8-tetrahydroquinolin-2(1H)-one] | < 5.00 | +B | +B | – |
| CCS(=O)(=O)N1CCc2c(cc(-c3cccc(Cl)c3)c(=O)n2CC2CC2)C1 [Compound 49, 3-(3-chlorophenyl)-1-(cyclopropylmethyl)-6-(ethylsulfonyl)-5,6,7,8-tetrahydro-1,6-naphthyridin-2(1H)-one] | < 5.00 | +B | +B | – |
| O=c1c(-c2ccc(Cl)cc2)cc2c(n1CC1CCC1)CCCC2 [Compound 19, 3-(4-chlorophenyl)-1-(cyclobutylmethyl)-5,6,7,8-tetrahydroquinolin-2(1H)-one] | < 5.00 | +B | +B | – |
| CC(=O)N1CCc2c(cc(-c3cccnc3)c(=O)n2CC2CCC2)C1 [Compound 46, 6-acetyl-1-(cyclobutylmethyl)-3-(pyridin-3-yl)-5,6,7,8-tetrahydro-1,6-naphthyridin-2(1H)-one] | < 5.00 | +B | +B | – |
| O=c1c(-c2ccc(C(F)(F)F)cc2)cc2c(n1CC1CCCCC1)CCCC2 [Compound 23, 1-(cyclohexylmethyl)-3-(4-(trifluoromethyl)phenyl)-5,6,7,8-tetrahydroquinolin-2(1H)-one] | – | +B | −B | +B |
| O=c1c(-c2ccc(C(F)(F)F)cc2)cc2c(n1CC1CCC1)CCNC2 [Compound 39, 3-(4-(trifluoromethyl)phenyl)-1-(cyclobutylmethyl)-5,6,7,8-tetrahydro-1,6-naphthyridin-2(1H)-one] | < 5.00 | +C | +C | – |
| O=c1c(Cc2ccncc2)cc2c(n1CC1CCC1)CCCC2 [Compound 32, 1-(cyclobutylmethyl)-3-(pyridin-4-ylmethyl)-5,6,7,8-tetrahydroquinolin-2(1H)-one] | < 5.00 | +B | +B | – |
| CS(=O)(=O)N1CCc2c(cc(Cc3ccccc3F)c(=O)n2CC2CCC2)C1 [Compound 58, 1-(cyclobutylmethyl)-3-(2-fluorobenzyl)-6-(methylsulfonyl)-5,6,7,8-tetrahydro-1,6-naphthyridin-2(1H)-one] | – | +A | +A | +B |
| CS(=O)(=O)N1CCc2c(cc(-c3ccccc3F)c(=O)n2CC2CCC2)C1 [Compound 53, 1-(cyclobutylmethyl)-3-(2-fluorophenyl)-6-(methylsulfonyl)-5,6,7,8-tetrahydro-1,6-naphthyridin-2(1H)-one] | < 5.00 | +A | +A | – |
| CC(=O)N1CCc2c(cc(-c3cccc(Cl)c3)c(=O)n2CC2CCC2)C1 [Compound 42, 6-acetyl-3-(3-chlorophenyl)-1-(cyclobutylmethyl)-5,6,7,8-tetrahydro-1,6-naphthyridin-2(1H)-one] | – | +A | +A | +C |
| O=c1c(Cc2ccc(F)cc2)cc2c(n1CC1CCC1)CCCC2 [Compound 33, 1-(cyclobutylmethyl)-3-(4-fluorobenzyl)-5,6,7,8-tetrahydroquinolin-2(1H)-one] | < 5.00 | +B | +B | – |
| O=c1c(-c2cccnc2)cc2c(n1CC1CCC1)CCNC2 [Compound 40, 1-(cyclobutylmethyl)-3-(pyridin-3-yl)-5,6,7,8-tetrahydro-1,6-naphthyridin-2(1H)-one] | < 5.00 | +C | +B | – |
| O=c1c(-c2cc3c(n(CC4CCC4)c2=O)CCCC3)cc2c(n1CC1CCC1)CCCC2 [Compound 5, 1,1′-bis(cyclobutylmethyl)-5,5′,6,6′,7,7′,8,8′-octahydro-3,3′-biquinoline-2,2′(1H,1′H)-dione] | – | +A | +A | +C |
| O=c1c(-c2cccc(Cl)c2)cc2c(n1CC1CCC1)CCCC2 [Compound 8, 3-(3-chlorophenyl)-1-(cyclobutylmethyl)-5,6,7,8-tetrahydroquinolin-2(1H)-one] | < 5.00 | +A | +A | – |
| CC(=O)N1CCc2c(cc(-c3ccccc3F)c(=O)n2CC2CCC2)C1 [Compound 54, 6-acetyl-1-(cyclobutylmethyl)-3-(2-fluorophenyl)-5,6,7,8-tetrahydro-1,6-naphthyridin-2(1H)-one] | < 5.00 | +B | +A | – |
| O=c1c(Cc2ccccc2F)cc2c(n1CC1CCC1)CCCC2 [Compound 31, 1-(cyclobutylmethyl)-3-(2-fluorobenzyl)-5,6,7,8-tetrahydroquinolin-2(1H)-one] | < 5.00 | +A | +A | – |
